Measured values published in patent US20240246941A1, “SUBSTITUTED 4-(3-AMINOPROP-1-YL)AMINOQUINOLINE ANALOGS AS MODULATORS OF MELANOMA-ASSOCIATED ANTIGEN 11 UBIQUITIN LIGASE” (ST. JUDE CHILDREN'S RESEARCH HOSPITAL, INC., priority 2020, published 2024).

Each molecule was assayed against MAGE-A11:PCF11 (Homo sapiens (Human), UniProt P43364) (assay: TR-FRET single point screening at 15 μM). Details: single point TR-FRET screening at 15 μM against MAGE-A11:PCF11.
Assay type: binding
Set-up: unit not given here
From the text: TR-FRET Assays and High-throughput Screen. Terbium-anti-GST antibody, 1 M Tris pH 7.5 1 M MgCl2 and 1 M DTT were purchased from Invitrogen (Carlsbad, CA), BSA was purchased from Sigma (St. Louis, MO). Dimethyl sulfoxide (DMSO) was purchased from Fisher Scientific (Pittsburgh, PA). Black 384-well low volume plates and 384-well polypropylene compound plates were purchased from Corning Incorporated (Tewksbury, MA). The St. Jude FDA drug and Bioactive library (11,293 chemicals), Drug-like library (10,073 chemicals) and Lead-like library (10,041 chemicals) were custom assembled and purchased from commercial sources including Sigma, Microsource (Gaylordsville, CT), selleckchem (Houston, TX), ChemDiv (San Diego, CA), ChemBridge (San Diego, CA), Enamine (Monmouth Jct., NJ), and Life Chemicals (Niagara-on-the-Lake, ON, Canada). They were arrayed (10 mM in DMSO) in 384-well polypropylene compound plates with columns 1, 2, 13 and 14 empty which were reserved for controls.
The TR-FRET assay buffer with a formula of 50 mM Tris pH 7.5, 20 mM MgCl2, 0.1 mg/ml BSA and 1 mM DTT was freshly prepared before each experiment. All TR-FRET assays were performed in black 384-well plates with 20 μl/well assay volume in the TR-FRET assay buffer at room temperature (approximately 25° C.). All peptides or compounds were solubilized in DMSO. To test the competitive activity of peptides or compounds against the interaction between GST-MAGEA11 MHD and FAM-PCF11_4 peptide, 10 μl/well peptide or compound at specified concentration was dispensed into a black 384-well low volume plate, followed by 5 μl/well FAM-PCF11_4 (800 nM), 5 μl/well Tb-anti-GST (20 nM) and GST-MAGEA11 MHD (20 nM). The assay components in each well was then mixed by shaking the plate on an IKA MTS 2/4 digital microtiter plate shaker (IKA Works; Wilmington, NC, USA) at 900 RPM for 1 minute. The plate was further centrifuged in an Eppendorf 5810 centrifuge with an A-4-62 swing-bucket rotor (Eppendorf AG, Hamburg, Germany) at 201 g (1000 rpm) for 30 seconds. The plate was then incubated for 90 min with a lid to avoid light exposure to the assay components. After incubation, the fluorescent emission signals at 520 nm and 490 nm channels of individual wells were measured with a PHERAstar FS plate reader (BMG Labtech; Durham, NC, USA) by using a 340 nm excitation filter, 100 μs delay time, and 200 μs integration time. The TR-FRET fluorescence emission ratio (TR-FRET signal) for each well was presented as 10 000×520 nm/490 nm, which was used directly for curve fitting, or further converted to % Inhibition based on the respective positive and negative controls. The graphic software GraphPad Prism 4.81 (GraphPad Software; La Jolla, CA, USA) was used to generate curves and derive IC50 values of tested peptides or compounds, if applicable.
TR-FRET screen for identifying MAGEA11 small molecule inhibitors was performed as follows. The primary one-concentration screening and subsequent 10 or 20-concentration dose response tests were accomplished with an automated High Throughput Screening system (HighRes Biosolutions, Beverly, MA)^30. In the primary screening, 15 μl/well FAM-PCF11_4 (267 nM) was first dispensed with a Multidrop Combi Reagent Dispenser (Thermo Fisher Scientific, Waltham, MA) to black 384-well low volume assay plates. The plates were spun down with a Velocity11 VSpin microplate centrifuge (Agilent Technologies, Santa Clara, CA). 30 nl/well of 10 mM compound/DMSO solutions, or DMSO alone, were transferred from compound plates (the St. Jude FDA drug and bioactive library, Drug-like library and Lead-like library) or a control plate to the assay plates with a Pin Tool (V&P Scientific, San Diego, CA). The compounds were arrayed in columns 3 to 12 and columns 15 to 24 of compound plates. The controls were arrayed in columns 1, 2, 13 and 14 of a compound plate. […]

MAGE-A11:PCF11, sequence (P43364 218-429): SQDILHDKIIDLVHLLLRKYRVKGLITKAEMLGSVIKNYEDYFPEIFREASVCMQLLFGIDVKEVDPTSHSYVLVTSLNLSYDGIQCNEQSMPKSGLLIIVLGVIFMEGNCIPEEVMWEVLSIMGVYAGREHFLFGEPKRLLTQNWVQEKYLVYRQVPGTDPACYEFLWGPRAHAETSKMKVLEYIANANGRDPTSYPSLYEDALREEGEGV

Question: For `Cc1ccc(C)c(CN2CCC(Nc3ccnc4cc(Cl)ccc34)CC2)c1` [SJ000523106], which TR-FRET signal is on record?
Answer: 18.68

Question: With `Cc1ccc(S(=O)(=O)c2cnc3ccccc3c2N2CCN(c3ccc(F)cc3)CC2)cc1C` [SJ000117062] as the molecule, how does the TR-FRET signal read?
Answer: −54.86

Question: With `CCN1CCN(c2c(S(=O)(=O)c3ccc(C)cc3)cnc3ccc(OC)cc23)CC1` [SJ000083963] as the molecule, how does the TR-FRET signal read?
Answer: −3.917

Question: How did the TR-FRET signal turn out when `CCCN(CCCNc1c2ccc(Cl)cc2nc2ccc(OC)cc12)Cc1ccccc1F` [SJ000520944] was run?
Answer: −118.6

Question: For `CCCN(CCCNc1c2ccc(Cl)cc2nc2ccc(OC)cc12)Cc1cnn(C)c1` [SJ000522980], which TR-FRET signal is on record?
Answer: −276.6

Question: How did the TR-FRET signal turn out when `CCc1ccc2ncc(S(=O)(=O)c3ccccc3)c(N3CCN(C)CC3)c2c1` [SJ000083946] was run?
Answer: −6.249

Question: Which TR-FRET signal does the source give for `O=S(=O)(c1ccc(F)cc1)N1CCN(c2ccnc3cc(Cl)ccc23)CC1` [SJ000203833] here?
Answer: −50.64

Question: Which TR-FRET signal does the source give for `CCCN(CCCNc1c2ccc(Cl)cc2nc2ccc(OC)cc12)CCC(C)(C)C` [SJ000522983] here?
Answer: −233.7

Question: For `CCOc1ccc2ncc(S(=O)(=O)c3ccccc3)c(N3CCN(C)CC3)c2c1` [SJ000083948], which TR-FRET signal is on record?
Answer: −3.938

Question: `CN(C)CC(=O)Nc1c2c(nc3ccccc13)N(C)CC2` [SJ000332030] was tested. Which TR-FRET signal did it give?
Answer: 17.04

Question: Which TR-FRET signal does the source give for `COc1ccc(S(=O)(=O)c2cnc3cc(OC)c(OC)cc3c2N2CCN(C)CC2)cc1` [SJ000083955] here?
Answer: 0.8227

Question: Which TR-FRET signal does the source give for `CCN(CC)CC(=O)Nc1c2c(nc3ccccc13)CCC2` [SJ000049655] here?
Answer: 0.6542

Question: With `CCN1CCN(c2c(S(=O)(=O)c3ccccc3)cnc3ccc(C)cc23)CC1` [SJ000083956] as the molecule, how does the TR-FRET signal read?
Answer: −3.448

Question: How did the TR-FRET signal turn out when `CCN1CCN(c2c(C(=O)c3ccccc3)cnc3ccc(OC)cc23)CC1` [SJ000247365] was run?
Answer: −0.2733

Question: Which TR-FRET signal does the source give for `Clc1ccc2c(NCCCCN(Cc3ccccc3)Cc3ccc4c(c3)OCO4)ccnc2c1` [SJ000522723] here?
Answer: 16.51

Same assay, conditions: single point TR-FRET screening of quinoline compounds against MAGE-A11:PCF11; 15 μM

Question: How did the TR-FRET signal turn out when `COc1ccc2nc3cc(Cl)ccc3c(NCCCNCc3cccc(OC(F)(F)F)c3)c2c1` [SJ000520988] was run?
Answer: −73.54

Question: For `Clc1ccc2c(NCCCN(Cc3ccccc3)CC3CCCCC3)ccnc2c1` [SJ000361171], which TR-FRET signal is on record?
Answer: 28.21

Question: With `CCCN(CCCNc1c2ccc(Cl)cc2nc2ccc(OC)cc12)CC1CCOC1` (stereo not drawn) [SJ000575149] as the molecule, how does the TR-FRET signal read?
Answer: −35.94

Question: With `N#Cc1ccc(Cc2ccc3c(NCCCNCc4ccco4)ccnc3c2)cc1` [SJ000311302] as the molecule, how does the TR-FRET signal read?
Answer: 20.43

Question: With `CCCN(CCCNc1ccnc2cc(C(F)(F)F)ccc12)Cc1cccc(OC)c1O` [SJ000361260] as the molecule, how does the TR-FRET signal read?
Answer: 15.49

Question: `Clc1ccc2c(NCCCN(Cc3ccccc3)Cc3cccs3)ccnc2c1` [SJ000312672] was tested. Which TR-FRET signal did it give?
Answer: 4.744

Question: For `CCCN(CCCNc1ccnc2cc(C(F)(F)F)ccc12)Cc1cc(OC)ccc1O` [SJ000361263], which TR-FRET signal is on record?
Answer: 25.26

Question: With `CCCN(CCCNc1ccnc2cc(C(F)(F)F)ccc12)CC(C)CC` (stereo not drawn) [SJ000523081] as the molecule, how does the TR-FRET signal read?
Answer: 22.28

Question: With `Clc1ccc2c(NCCCNCc3ccsc3)ccnc2c1` [SJ000523052] as the molecule, how does the TR-FRET signal read?
Answer: 15.25

Question: `CCCN(CCCNc1ccnc2cc(C(F)(F)F)ccc12)Cc1ccccc1` [SJ000361256] was tested. Which TR-FRET signal did it give?
Answer: 28.82

Question: For `Clc1ccc(Oc2ccc3c(NCCCNCc4ccco4)ccnc3c2)cc1` [SJ000311226], which TR-FRET signal is on record?
Answer: 37.65

Question: For `CCCN(CCCNc1ccnc2cc(Cl)ccc12)Cc1cc(C(F)(F)F)ccc1OC` [SJ000523012], which TR-FRET signal is on record?
Answer: 30.4

Question: With `CCCN(CCCNc1c2ccc(Cl)cc2nc2ccc(OC)cc12)CCCSC` [SJ000522730] as the molecule, how does the TR-FRET signal read?
Answer: 0.7867

Question: `CSC(C)CCNCCCNc1ccnc2cc(C(F)(F)F)ccc12` (stereo not drawn) [SJ000361125] was tested. Which TR-FRET signal did it give?
Answer: 24.46

Question: `CCCN(CCCNc1ccnc2cc(Cl)ccc12)Cc1ccc(Cl)cc1Cl` [SJ000523043] was tested. Which TR-FRET signal did it give?
Answer: 12.1

Question: `CCCN(CCCNc1c2ccc(Cl)cc2nc2ccc(OC)cc12)Cc1cccc(F)c1` [SJ000520945] was tested. Which TR-FRET signal did it give?
Answer: −90.13

Question: How did the TR-FRET signal turn out when `CCCN(CCCNc1ccnc2cc(C(F)(F)F)ccc12)Cc1cccc(F)c1` [SJ000521008] was run?
Answer: 27.85

Question: With `FC(F)(F)c1ccc2c(NCCCNCc3ccc[nH]3)ccnc2c1` [SJ000361105] as the molecule, how does the TR-FRET signal read?
Answer: 41.69
